The values below come from article PMC9501377, “New Diarylamine KV10.1 Inhibitors and Their Anticancer Potential” (Pharmaceutics, 2022).

One series concerns the target T1, KV10.1 (Homo sapiens, UniProt O95259).
T1 construct: expressed in transfected cells; host or cells: Xenopus laevis oocytes (cRNA injection)
T1 sequence (O95259 1-989): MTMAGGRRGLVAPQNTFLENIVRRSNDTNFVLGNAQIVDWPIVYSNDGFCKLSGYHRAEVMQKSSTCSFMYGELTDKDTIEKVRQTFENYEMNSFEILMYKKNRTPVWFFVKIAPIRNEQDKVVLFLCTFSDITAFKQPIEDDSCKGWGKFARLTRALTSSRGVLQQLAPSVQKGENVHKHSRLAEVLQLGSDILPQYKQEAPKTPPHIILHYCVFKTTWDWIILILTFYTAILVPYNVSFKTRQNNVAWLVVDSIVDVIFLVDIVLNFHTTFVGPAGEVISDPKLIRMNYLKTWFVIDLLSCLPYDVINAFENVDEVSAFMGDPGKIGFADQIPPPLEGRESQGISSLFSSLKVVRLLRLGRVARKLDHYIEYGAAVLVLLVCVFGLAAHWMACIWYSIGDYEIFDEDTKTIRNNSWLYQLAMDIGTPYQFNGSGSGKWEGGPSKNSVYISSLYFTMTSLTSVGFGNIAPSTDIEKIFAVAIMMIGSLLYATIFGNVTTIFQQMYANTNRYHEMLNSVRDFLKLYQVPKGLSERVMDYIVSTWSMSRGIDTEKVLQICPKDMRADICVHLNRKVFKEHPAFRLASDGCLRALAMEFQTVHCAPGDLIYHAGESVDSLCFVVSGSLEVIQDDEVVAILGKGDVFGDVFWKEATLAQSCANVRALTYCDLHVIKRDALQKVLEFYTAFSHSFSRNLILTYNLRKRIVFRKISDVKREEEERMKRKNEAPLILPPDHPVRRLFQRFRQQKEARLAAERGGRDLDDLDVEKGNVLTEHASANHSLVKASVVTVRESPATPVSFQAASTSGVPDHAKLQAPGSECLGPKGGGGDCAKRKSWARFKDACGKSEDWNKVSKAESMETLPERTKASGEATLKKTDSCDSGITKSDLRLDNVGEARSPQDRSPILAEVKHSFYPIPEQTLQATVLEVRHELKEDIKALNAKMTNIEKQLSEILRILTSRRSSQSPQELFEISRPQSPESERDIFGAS
The series can be described thus: Two-electrode voltage-clamp on Xenopus laevis oocytes expressing KV10.1. In kind it is cell-based. Conditions: voltage-clamped. The source says: (§1) Stage V–VI oocytes were isolated by partial ovariectomy from Xenopus laevis frogs (African clawed frog). Mature female frogs were purchased from CRB Xénopes (Rennes, France) and were housed in the Aquatic Facility (KU Leuven) in compliance with the regulations of the European Union (EU) concerning the welfare of laboratory animals as declared in Directive 2010/63/EU. The use of Xenopus laevis was approved by the Animal Ethics Committee of the KU Leuven (Project nr. P186/2019). After anesthetising the frogs by a 15 min submersion in 0.1% tricaine methanesulphonate (pH 7.0), the oocytes were collected. The isolated oocytes were then washed with a 1.5 mg/mL collagenase solution for 2 h to remove the follicle layer.
(§2) Ion channels (KV10.1 and hERG) were expressed in Xenopus laevis oocytes, by linearisation of the plasmids and subsequent in vitro transcription using a commercial T7 or SP6 mMESSAGE mMACHINE transcription kit (Ambion, Carlsbad, CA, USA). Defolliculated Xenopus oocytes were then injected with 20–50 nL of the cRNA at a concentration of 1 ng/nL using a micro-injector (Drummond Scientific1, Broomall, PA, USA). The oocytes were incubated in a solution containing (in mM): NaCl, 96; KCl, 2; CaCl2, 1.8; MgCl2, 2 and HEPES, 5 (pH 7.4), supplemented with 50 mg/L gentamycin sulphate and […]. After ex vivo translation, the ion channels are correctly inserted in the cell membrane of the oocytes.
(§3) Two-electrode voltage-clamp recordings were performed at room temperature (18–22 °C) using a Geneclamp 500 amplifier (Molecular Devices, San Jose, CA, USA) controlled by a pClamp data acquisition system (Axon Instruments1, Union City, CA, USA) and using an integrated digital TEVC amplifier controlled by HiClamp, an automated Voltage-Clamp Screening System (Multi Channel Systems MCS GmbH, Reutlingen, Germany). Whole-cell currents from oocytes were recorded 1–7 days after injection. The bath solution composition was ND96 (in mM): NaCl, 96; KCl, 2; CaCl2, 1.8; MgCl2, 2 and HEPES, 5 (pH 7.5). Voltage and current electrodes were filled with a 3 M solution of KCl in H2O. Resistances of both electrodes were kept between 0.5 and 1.5 MΩ. The elicited Kv10.1 and hERG currents were filtered at 0.5 kHz and sampled at 2 kHz using a four-pole low-pass Bessel filter. Leak subtraction was performed using a p/4 protocol. Starting from a holding potential of −90 mV, currents for Kv10.1 were evoked by 1 s depolarizing pulses to 0 mV and currents for hERG were evoked by 2.5 s depolarizing prepulses to +40 mV, followed by hyperpolarizing pulses to −120 mV for 2.5 s. The concentration dependency of all compounds was assessed by measuring the current inhibition in the presence of increasing compound concentrations. To this end, a stock solution of the compounds was prepared in 100% DMSO for the sake of solubility. From this stock solution, adequate dilutions with a maximum of 0.5% DMSO were made for testing. The data of the concentration–response curves were fitted with the Hill equation: y = 100/{1 + (IC50/[compound])^h}, where y is the amplitude of the compound- induced effect, IC50 is the compound concentration at half-maximal efficacy, (compound) is the compound concentration, and h is the Hill coefficient.
(§4) All electrophysiological data are presented as means ± SEM of n ≥ 3 independent experiments unless otherwise indicated. Oocyte data were analysed using pClamp Clampfit 10.4 (Molecular Devices, Downingtown, PA, USA) and OriginPro 9 (Originlab, Northampton, MA, USA) or GraphPad Prism 8 software (GraphPad Software, Inc., San Diego, CA, USA). Patch-clamp data analysis was performed using FitMaster (HEKA Electronics), IgorPro (Wavemetrics, Inc., Lake Oswego, OR, USA) and GraphPad Prism 9 (GraphPad Software, Inc., San Diego, CA, USA). The Dunnett test and one-way ANOVA were performed to calculate the significance of the induced inhibition compared to the control (p < 0.05).
(In general: Two-electrode voltage clamp is typically applied to oocytes expressing channels or transporters.)

A further series deals with hERG (Homo sapiens, UniProt Q12809). Briefly: Two-electrode voltage-clamp on Xenopus laevis oocytes expressing hERG. Set-up: expressed in transfected cells; host or cells: Xenopus laevis oocytes (cRNA injection). Type of series: cell-based. The conditions noted are these: voltage-clamped; for inhibition at 10 µM: human, Xenopus laevis oocytes expressing hERG, pH 7.5, 10 μM.
Text: as §1, §2, §3, §4

The structures appear in SMILES notation. pIC50: −log10 of the molar value. Where “and” joins values, the source holds several entries; their conditions need not be identical. Identical values can stand only once.

hERG, sequence (Q12809 whole entry): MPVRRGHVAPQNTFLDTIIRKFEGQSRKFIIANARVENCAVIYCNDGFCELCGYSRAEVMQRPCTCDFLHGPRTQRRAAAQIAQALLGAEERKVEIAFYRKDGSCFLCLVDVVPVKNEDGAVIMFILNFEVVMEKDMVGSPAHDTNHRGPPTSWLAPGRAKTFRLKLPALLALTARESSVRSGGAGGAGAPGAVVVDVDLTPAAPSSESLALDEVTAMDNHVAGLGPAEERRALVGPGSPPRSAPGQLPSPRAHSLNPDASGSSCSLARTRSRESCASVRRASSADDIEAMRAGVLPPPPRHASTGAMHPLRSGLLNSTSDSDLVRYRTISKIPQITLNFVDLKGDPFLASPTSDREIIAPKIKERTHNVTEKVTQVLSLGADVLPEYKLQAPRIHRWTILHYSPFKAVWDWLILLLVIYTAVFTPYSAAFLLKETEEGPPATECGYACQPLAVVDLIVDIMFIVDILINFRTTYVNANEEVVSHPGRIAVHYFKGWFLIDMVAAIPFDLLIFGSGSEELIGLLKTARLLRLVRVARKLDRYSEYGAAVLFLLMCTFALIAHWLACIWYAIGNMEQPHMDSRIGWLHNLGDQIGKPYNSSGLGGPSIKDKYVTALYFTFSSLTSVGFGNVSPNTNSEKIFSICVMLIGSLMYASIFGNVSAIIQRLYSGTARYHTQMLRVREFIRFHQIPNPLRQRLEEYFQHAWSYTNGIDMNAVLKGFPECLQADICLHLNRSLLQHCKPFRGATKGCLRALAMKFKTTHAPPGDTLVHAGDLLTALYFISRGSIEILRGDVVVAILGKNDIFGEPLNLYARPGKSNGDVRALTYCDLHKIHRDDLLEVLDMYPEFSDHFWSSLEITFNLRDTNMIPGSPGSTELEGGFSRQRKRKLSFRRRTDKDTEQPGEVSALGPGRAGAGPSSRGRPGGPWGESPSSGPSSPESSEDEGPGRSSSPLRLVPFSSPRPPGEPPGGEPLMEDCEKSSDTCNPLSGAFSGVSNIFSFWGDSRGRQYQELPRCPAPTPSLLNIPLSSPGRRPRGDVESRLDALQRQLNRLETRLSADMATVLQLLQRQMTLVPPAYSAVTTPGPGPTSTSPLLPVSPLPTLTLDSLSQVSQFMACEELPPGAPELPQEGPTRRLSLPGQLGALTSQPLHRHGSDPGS

The inhibition is the change of the read-out against control, counted positive when it falls. As to `COC(=O)c1ccccc1Oc1ccc(OCC(O)CN2CCOCC2)cc1` (stereo not shown) [Compound 5a, Methyl 2-(4-(2-hydroxy-3-morpholinopropoxy)phenoxy)benzoate], the inhibition at 10 µM at KV10.1 is -4.54%; on hERG, 15%.

For the compound `O=[N+]([O-])c1cc(C(F)(F)F)ccc1Oc1ccc(OCC(O)CN2CCOCC2)cc1` (stereo not shown) [Compound 5b, 1-Morpholino-3-(4-(2-nitro-4-(trifluoromethyl)phenoxy)phenoxy)propan-2-ol], the values for the inhibition at 10 µM on KV10.1 and on hERG were 24.9% and 11.5%, respectively.

For the compound `O=C(Nc1ccc(OCC(O)CN2CCOCC2)cc1)c1ccc(C(F)(F)F)cc1[N+](=O)[O-]` (stereo not shown) [Compound 5c, N-(4-(2-Hydroxy-3-morpholinopropoxy)phenyl)-2-nitro-4-(trifluoromethyl)benzamide], the inhibition at 10 µM was -0.66% against KV10.1 and 21.5% on hERG.

Turning to `COC(=O)c1ccccc1Nc1ccc(OCC(O)CN2CCOCC2)cc1` (stereo not shown) [Compound 5d, Methyl 2-((4-(2-hydroxy-3-morpholinopropoxy)phenyl)amino)benzoate], the inhibition at 10 µM at KV10.1 is -2.11%; on hERG it was 20.4%.

As to `O=[N+]([O-])c1ccc(Nc2ccc(OCC(O)CN3CCOCC3)cc2)c([N+](=O)[O-])c1` (stereo not shown) [Compound 5f, 1-(4-((2,4-Dinitrophenyl)amino)phenoxy)-3-morpholinopropan-2-ol], the values for the inhibition at 10 µM at KV10.1 and against hERG were 41.3% and 65.8%, respectively.

With `CN(C)CC(O)COc1ccc(Oc2ccc(C(F)(F)F)cc2[N+](=O)[O-])cc1` (stereo not shown) [Compound 6a, 1-(Dimethylamino)-3-(4-(2-nitro-4-(trifluoromethyl)phenoxy)phenoxy)propan-2-ol], the inhibition at 10 µM at KV10.1 was 23.7%; at hERG it was 69.1%.

As to `CN(C)CC(O)COc1ccc(NC(=O)c2ccc(C(F)(F)F)cc2[N+](=O)[O-])cc1` (stereo not shown) [Compound 6b, N-(4-(3-(Dimethylamino)-2-hydroxypropoxy)phenyl)-2-nitro-4-(trifluoromethyl)benzamide], the inhibition at 10 µM was -0.41% at KV10.1 and 9.83% at hERG.

For the compound `COC(=O)c1cc(C(F)(F)F)ccc1Nc1ccc(OCC(O)CN(C)C)cc1` (stereo not shown) [Compound 6c, Methyl 2-((4-(3-(dimethylamino)-2-hydroxypropoxy)phenyl)amino)-5-(trifluoromethyl)benzoate], the inhibition at 10 µM at KV10.1 came out at 9.91%; against hERG, 63.7%.

In the case of `CN(C)CC(O)COc1ccc(Nc2ccc([N+](=O)[O-])cc2[N+](=O)[O-])cc1` (stereo not shown) [Compound 6d, 1-(Dimethylamino)-3-(4-((2,4-dinitrophenyl)amino)phenoxy)propan-2-ol], the inhibition at 10 µM against KV10.1 was found to be 44.1%; against hERG, 74.3%.

On to `O=C(O)c1ccccc1Nc1ccc(OCC(O)CN2CCOCC2)cc1` (stereo not shown) [Compound 10a, 2-((4-(2-Hydroxy-3-morpholinopropoxy)phenyl)amino)benzoic acid], for which the results for the inhibition at 10 µM against KV10.1 and at hERG were 13% and 3.42%, respectively.

`CN(C)CC(O)COc1ccc(Nc2ccc(C(F)(F)F)cc2C(=O)O)cc1` (stereo not shown) [Compound 10b, 2-((4-(3-(Dimethylamino)-2-hydroxypropoxy)phenyl)amino)-5-(trifluoromethyl)benzoic acid]: the inhibition at 10 µM came to 15.7% on KV10.1 and 14.7% against hERG.

Regarding `O=[N+]([O-])c1cc(C(F)(F)F)ccc1Nc1ccc(OCCN2CCOCC2)cc1` [Compound 13, N-(4-(2-Morpholinoethoxy)phenyl)-2-nitro-4-(trifluoromethyl)aniline], the inhibition at 10 µM at KV10.1 came to 22.6%; on hERG, 34.7%.

As for `O=[N+]([O-])c1cc(C(F)(F)F)ccc1Nc1ccc(OCc2ccccc2)cc1` [Compound 14, N-(4-(Benzyloxy)phenyl)-2-nitro-4-(trifluoromethyl)aniline], the values for the inhibition at 10 µM on KV10.1 and on hERG were -1.18% and 4.23%, respectively.

Take `CNCC(O)COc1ccc(Nc2ccc(C(F)(F)F)cc2[N+](=O)[O-])cc1` (stereo not shown) [Compound 15, 1-(Methylamino)-3-(4-((2-nitro-4-(trifluoromethyl)phenyl)amino)phenoxy)propan-2-ol]: the values for the inhibition at 10 µM on KV10.1 and against hERG were 39.9% and 58.6%, respectively.

On to `O=C(Cc1ccc(Cl)c(Cl)c1)NC1CCN(CC(O)COc2ccc(Nc3ccc(C(F)(F)F)cc3[N+](=O)[O-])cc2)CC1` (stereo not shown) [Compound 16d, 2-(3,4-Dichlorophenyl)-N-(1-(2-hydroxy-3-(4-((2-nitro-4-(trifluoromethyl)phenyl)amino)phenoxy)propyl)piperidin-4-yl)acetamide], for which the inhibition at 10 µM at KV10.1 was 0%.

Broadly, the pIC50 is −log10 of the IC50, conventionally taken in molar units. Low values mean a large IC50, high ones a small IC50. For the compound `CCN(CC)CCOc1ccc(Nc2ccc(C(F)(F)F)cc2[N+](=O)[O-])cc1` [Compound 17a, N-(4-(2-(Diethylamino)ethoxy)phenyl)-2-nitro-4-(trifluoromethyl)aniline], on KV10.1, the inhibition at 10 µM came out at 63.5%; the pIC50 was 5.45 and 5.44. Besides, at hERG, the inhibition at 10 µM is 64.5% and the pIC50 is 5.70.

Take `CCN(CC)CCOc1c(Br)cc(Nc2ccc(C(F)(F)F)cc2[N+](=O)[O-])cc1Br` [Compound 17b, 3,5-Dibromo-4-(2-(diethylamino)ethoxy)-N-(2-nitro-4-(trifluoromethyl)phenyl)aniline]: the inhibition at 10 µM against KV10.1 amounted to 19.5%; against hERG, 60.1%.

In the case of `CCN(CC)CCOc1c(Cl)cc(Nc2ccc(C(F)(F)F)cc2[N+](=O)[O-])cc1Cl` [Compound 17c, 3,5-Dichloro-4-(2-(diethylamino)ethoxy)-N-(2-nitro-4-(trifluoromethyl)phenyl)aniline], the inhibition at 10 µM stood at 9.21% against KV10.1 and 54.7% against hERG.
